25 substances from US6838574B1, “Dicarba-closo-dodecarborane derivatives” (Institute of Medicinal Molecular Design, Inc., priority 1999, dated 2005) can be followed below.

This test has as its target T1, rat estrogen receptor (pCI-rER α) (Rattus norvegicus, UniProt P06211).
T1 construct: expressed in transfected cells; host or cells: COS-1 cells
T1 sequence (P06211 1-600): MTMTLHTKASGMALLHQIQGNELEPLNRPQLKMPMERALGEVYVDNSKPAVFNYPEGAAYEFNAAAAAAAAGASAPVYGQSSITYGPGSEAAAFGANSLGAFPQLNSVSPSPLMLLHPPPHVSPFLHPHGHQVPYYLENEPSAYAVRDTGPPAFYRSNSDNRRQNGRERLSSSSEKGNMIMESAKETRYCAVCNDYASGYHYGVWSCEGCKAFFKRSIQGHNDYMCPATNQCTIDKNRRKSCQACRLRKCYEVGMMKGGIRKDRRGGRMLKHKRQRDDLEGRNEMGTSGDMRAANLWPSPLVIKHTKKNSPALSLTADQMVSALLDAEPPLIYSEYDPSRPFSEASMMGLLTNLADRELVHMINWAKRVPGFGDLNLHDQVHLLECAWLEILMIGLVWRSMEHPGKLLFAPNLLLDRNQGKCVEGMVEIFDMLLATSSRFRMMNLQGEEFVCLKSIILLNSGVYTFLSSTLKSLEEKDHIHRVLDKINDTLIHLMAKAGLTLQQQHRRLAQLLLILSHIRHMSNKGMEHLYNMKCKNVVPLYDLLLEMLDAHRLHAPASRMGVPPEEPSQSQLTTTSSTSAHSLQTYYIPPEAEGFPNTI
The test can be described thus: Estrogenic activity, estrogen receptor-dependent luciferase reporter gene assay in COS-1 cells. Format: cell-based. The conditions noted are these: for EC50: 50% of luciferase activity of β-estradiol at 10 nM (=100), COS-1; for Relative Activity (%) at the Same Amount of β-estradiol: β-estradiol = 100. The method, then: As estrogenic activity, estrogen receptor-dependent transcriptional activation abilities of the test compounds were determined by the r porter gene assay using luciferase gene. COS-1 cells were cultured using a DMEM medium containing an antibiotics and 5% bovine fetal serum in the wells of 24 well plates (cell density: 5 to 6×10^4/well) at 37° C. for one night under 5% carbon dioxide. On the next day, the medium was changed to DMEM medium not containing Phenol Red. Using gene introducing reagent Tfx-20 (Promega), reporter plasmid EREx3-pGL-TK, in which rat estrogen receptor expression plasmid pCI-rER α and an estrogen responsive sequence were placed upstream of the luciferase gene, and β-galactosidase expression plasmid pCMV β used as an internal standard were introduced into cells. The cells were cultured for 2 h, and the medium was changed to DMEM not containing Phenol Red but containing active charcoal-treated serum.
The culture was added with each test compound dissolved in ethanol at various concentrations (final ethanol concentration at 0.5%) and then cultivation was continued at 37° C. for one night under 5% carbon dioxide. On the next day, the cells were lysed and enzymatic activity of luciferase expressed was measured by using a chemiluminometer. The values were standardized based on galactocidase enzymatic activity, and then compared with the values obtained by experiments using no test compound and used as values of activity at various concentrations. […] The estrogenic activities in the table are shown as concentrations for 50% activity (EC50 values) which give 50% activities relative to luciferase activity regarded as 100 that is expressed by treatment with the control compound β-estradiol at 10 nM. Each compound tested in this experiment has a high estrogenic activity.
Estrogenic activities, i.e., estrogen receptor-dependent transcriptional abilities of test compounds, were determined by the reporter gene assay using the luciferase gene in the same manner as those described above. In this experiment (Table 6), estrogenic activities at 0.1 nM, 1 nM, and 10 nM of the test compounds are shown as relative values in view of the luciferase activity regarded as 100 which is expressed at the same amounts of β-estradiol as a control, and intensities of activities were compared. Each compound tested in this experiment has high estrogenic activity.
(In general: Reporter assays use an easily measured gene product as a stand-in for the process of interest.)

[1] abbreviates: relative activity experiment (Table 6).

In general, EC50 refers to the midpoint of the concentration-response curve. High values mean a need for much substance, low ones an effect from little substance. For the substance “1,7-bis(4-hydroxyphenyl)-1,7-dicarba-closo-dodecaborane [BE260]”, the midpoint of the response, the EC50, lay at 1 nM.
Turning to “1,12-bis(4-hydroxyphenyl)-1,12-dicarba-closo-dodecaborane [BE160]”, the concentration giving a half-maximal response (EC50) stood at 1 nM. That is a single-digit nanomolar value.
With “1-(2-hydroxyethyl)-7-(3-hydroxyphenyl)-1,7-dicarba-closo-dodecaborane [BE422]”, the “Relative Activity (%) at the Same Amount of β-estradiol” value (“Relative Activity (%)” below) (1 nM) was 11% and the “Relative Activity (%)” value (10 nM) is recorded as 24%.
Turning to “1-(2-hydroxyethyl)-7-(4-hydroxyphenyl)-1,7-dicarba-closo-dodecaborane [BE222]”, the “Relative Activity (%)” value by setting is: (1 nM) 38%; (10 nM) 85%.
Consider “1-(2-hydroxyethyl)-12-(3-hydroxyphenyl)-1,12-dicarba-closo-dodecaborane [BE322]”, for which the “Relative Activity (%)” value by setting is: (1 nM) 43%; (10 nM) 85%.
As for “1-(2-hydroxyethyl)-12-(4-(hydroxyphenyl)-1,12-dicarba-closo-dodecaborane [BE122]”, the “Relative Activity (%)” value (0.1 nM) was 83%, the “Relative Activity (%)” value (1 nM) stood at 98% and the “Relative Activity (%)” value (10 nM) was 104%.
As for “1-(2-hydroxymethyl)-7-(3-hydroxyphenyl)-1,7-dicarba-closo-dodecaborane [BE420]”, the “Relative Activity (%)” value is on record as 18% (1 nM) and 59% (10 nM).
With “1-(2-hydroxymethyl)-12-(3-hydroxyphenyl)-1,12-dicarba-closo-dodecaborane [BE320]”, the “Relative Activity (%)” value was 116% (0.1 nM), 127% (1 nM) and 127% (10 nM). Moreover, under setting [1], the “estrogenic activity compared with β-estradiol (in words)” value was “much higher activities than that of β-estradiol”.
For the substance “1-(3-hydroxyphenyl)-1,7-dicarba-closo-dodecaborane [BE400]”, the “Relative Activity (%)” value (1 nM) is 11% and the “Relative Activity (%)” value (10 nM) came to 38%.
In the case of “1-(3-hydroxyphenyl)-1,12-dicarba-closo-dodecaborane [BE300]”, the “Relative Activity (%)” value was 20% (1 nM) and 59% (10 nM).
In the same order, the values of “1-(3-hydroxypropyl)-7-(3-hydroxyphenyl)-1,7-dicarba-closo-dodecaborane [BE423]” are less than 10% and 15%.
With “1-(3-hydroxypropyl)-7-(4-hydroxyphenyl)-1,7-dicarba-closo-dodecaborane [BE223]”, the “Relative Activity (%)” value was determined as 20% (1 nM) and 51% (10 nM).
Turning to “1-(3-hydroxypropyl)-12-(3-hydroxyphenyl)-1,12-dicarba-closo-dodecaborane [BE323]”, the “Relative Activity (%)” value is given as 12% (1 nM) and 31% (10 nM).
In the case of “1-(3-hydroxypropyl)-12-(4-hydroxyphenyl)-1,12-dicarba-closo-dodecaborane [BE123]”, the “Relative Activity (%)” value amounted to 29% (0.1 nM), 56% (1 nM) and 79% (10 nM).
For the substance “1-(4-hydroxyphenyl)-1,7-dicarba-closo-dodecaborane [BE200]”, the response was half-maximal at 2 nM (EC50). Moreover, where the note is “1 nM”, the “Relative Activity (%)” value was determined as 45%. In addition, the “Relative Activity (%)” value (10 nM) turned out to be 72%.
“1-(4-hydroxyphenyl)-1,12-dicarba-closo-dodecaborane [BE100]” had an EC50 of 0.7 nM. The “Relative Activity (%)” value (0.1 nM) was 51%. In addition, the “Relative Activity (%)” value (1 nM) is given as 63%. Moreover, the “Relative Activity (%)” value (10 nM) was determined as 82%. Where the note is “EC50 experiment (Table 5)”, the “estrogenic activity compared with β-estradiol (in words)” value is given as “much higher activity than that of β-estradiol”.
In the case of “1-amino-12-(4-hydroxyphenyl)-1,12-dicarba-closo-dodecaborane [BE140]”, the EC50 is 0.5 nM. Besides, the “estrogenic activity compared with β-estradiol (in words)” value (EC50 experiment (Table 5)) is listed as “much higher activity than that of β-estradiol”.
The substance “1-hydrocarbonyl-12-(4-hydroxyphenyl)-12-dicarba-closo-dodecaborane [BE130]” displayed an EC50 of 10 nM.
Turning to “1-hydroxy-7-(3-hydroxyphenyl)-1,7-dicarba-closo-dodecaborane [BE419]”, the “Relative Activity (%)” value runs as follows: (1 nM) 14%; (10 nM) 38%.
For the substance “1-hydroxy-7-(4-hydroxyphenyl)-1,7-dicarba-closo-dodecaborane [BE219]”, the “Relative Activity (%)” value was 40% (1 nM) and 71% (10 nM).
The corresponding values for “1-hydroxy-12-(3-hydroxy phenyl)-1,12-dicarba-closo-dodecaborane [BE319]” are 53% and 72%.
“1-hydroxy-12-(4-hydroxyphenyl)-1,12-dicarba-closo-dodecaborane [BE119]”: the “Relative Activity (%)” value is, setting by setting: (0.1 nM) 133%; (1 nM) 132%; (10 nM) 120%. Also, the “estrogenic activity compared with β-estradiol (in words)” value under setting [1] is “much higher activities than that of β-estradiol”.
Regarding “1-hydroxyethyl-12-(4-hydroxyphenyl)-1,12-dicarba-closo-dodecaborane [BE121]”, the EC50 is 1 nM. In addition, the “estrogenic activity compared with β-estradiol (in words)” value (EC50 experiment (Table 5)) was “much higher activity than that of β-estradiol”.
Consider “1-hydroxymethyl-12-(4-hydroxyphenyl)-1,12-dicarba-closo-dodecaborane [BE120]”, for which the EC50 amounted to 0.05 nM. The “Relative Activity (%)” value (0.1 nM) is 212%. For the same substance, the “Relative Activity (%)” value (1 nM) was 163%. Further, the “Relative Activity (%)” value (10 nM) is listed as 126%. Besides, the “estrogenic activity compared with β-estradiol (in words)” value (EC50 experiment (Table 5)) is “much higher activity than that of β-estradiol”. The “estrogenic activity compared with β-estradiol (in words)” value under setting [1] is given as “much higher activities than that of β-estradiol”.
As for “1-methoxycarbonyl-12-(4-hydroxyphenyl)-1,12-dicarba-closo-dodecaborane [BE110]”, the EC50 is 2 nM.
